{"source": "patent US20250099485A1", "about": "“COMPOSITIONS FOR PROMOTING HAIR GROWTH” (ESTETRA SRL, priority 2021, published 2025)", "key": {"[1]": {"tested_on": "Normal Human Epidermal Keratinocytes (NHEKs)", "test": "Colonization of acellular area (IBIDI gap closure), keratinocytes", "type": "cell-based", "settings": "6 h and 24 h contact, cell gives time of significant effect; for NHEK Proliferation & Migration (colonization of acellular area vs ethanol control): absence of MMC; for NHEK Migration (+MMC) (colonization of acellular area vs ethanol control): presence of mitomycin C", "method": "(§1) The study consists in an in vitro assay aiming to evaluate the properties of E4 and E2 at 4 concentrations each on keratinocytes and fibroblasts. In this assay, the measurement of the colonization of a standard acellular surface generated from a confluent monolayer of cells using a dedicated culture device (IBIDI chamber) is performed. The assay is performed in absence and in presence of a proliferation inhibitor to focus on cell proliferation and migration or on migration only, respectively.\nThe study was performed using cultures of Normal Human foreskin-derived Epidermal Keratinocytes (NHEKs, Lonza). The cells were grown in serum free Epilife medium (ThermoFisher Scientific) supplemented with Human Keratinocyte Growth Supplement (HKGS, ThermoFisher Scientific) and antibiotics. The cells were maintained in a humidified incubator at 37° C. with a 5% CO2 atmosphere.\n(§2) Cells were plated in 2-well silicone inserts with a defined cell free gap (IBIDI chambers; IBIDI GmbH, 80209) that was previously inserted on 12-well culture plates. This culture device allows to create a standardized 500 μm±100 μm cell free gap for monitoring cell colonization. 24 h after seeding, when the culture reached high confluency, cells in the insert were treated, or not, with mitomycin C (MMC) at 10 μg/ml during 2 h. After these 2 hours, the insert was removed, and cells were treated with E2 or E4 in presence or not of MMC for additional 2 h. Then, if appropriate, the culture medium was removed and cells were treated with E2 or E4 for 22 h, in absence of MMC.\n(§3) For the assay, keratinocytes were plated in Epilife medium without HKGS and all the treatments were performed in this medium. Fibroblasts were plated in DMEM medium containing only 2.5% of FBS and the treatments were performed in absence of FBS.\n(§4) E2 and E4 were applied at 4 concentrations each (10^−7M, 10^−8M, 10^−9M, 10^−10M). In parallel, cells were treated with a positive control (HKGS 1% for human keratinocytes and PDGF-BB at 10 ng/ml for human fibroblasts).\n(§5) To monitor cell colonization and to evaluate the gap closure rate, pictures of the gap were taken after different times: at time 0 h, corresponding to the beginning of the treatment with E2 or E4 and to the removal of the culture insert, at time 6 h and at time 24 h (corresponding to the end of the treatments with E2 or E4). Pictures were taken with a microscope Zeiss (Axiover 25-10× objective) and with a camera Invenio2EIII (DeltaPix—Lux-Optic). The colonized areas were quantified from the pictures by the use of the WimAsis platform—WimScratch software. For each insert, 3 pictures were taken at each time. As each condition was performed in triplicates, it means a total of 9 pictures per condition and per time point of acquisition"}, "[2]": {"tested_on": "Normal Human Dermal Fibroblasts (NHDFs)", "test": "Colonization of acellular area (IBIDI gap closure), fibroblasts", "type": "cell-based", "settings": "for NHDF Migration (+MMC) (colonization of acellular area vs ethanol control): presence of mitomycin C, 6 h and 24 h contact, cell gives time of significant effect", "method": "as §1\nNormal Human foreskin-derived Dermal Fibroblast (NHDFs, ATCC) cells were grown in phenol-free Dulbecco's Modified Eagle Medium (DMEM, ThermoFisher Scientific) supplemented with 10% of Foetal Bovine Serum (FBS, ThermoFisher Scientific), L-glutamine and antibiotics. The cells were maintained in a humidified incubator at 37° C. with a 5% CO2 atmosphere.\nas §2, §3, §4, §5"}}}
{"smiles": "C[C@]12CC[C@@H]3c4ccc(O)cc4CC[C@H]3[C@@H]1[C@@H](O)[C@@H](O)[C@@H]2O", "note": "[E4, 1,3,5 (10)-estratrien-3,15alpha,16alpha,17beta-tetrol]", "values": [{"measurement": "NHEK Proliferation & Migration (colonization of acellular area vs ethanol control)", "setting": "[1]; 10^−7M", "value": "significantly increased the colonization of the acellular area"}, {"measurement": "NHEK Migration (+MMC) (colonization of acellular area vs ethanol control)", "setting": "[1]; 10^−7M", "value": "significantly increased the colonization of the acellular area"}, {"measurement": "NHEK Proliferation & Migration (colonization of acellular area vs ethanol control)", "setting": "[1]; 10^−10M", "value": "significantly increased the colonization of the acellular area"}, {"measurement": "NHEK Migration (+MMC) (colonization of acellular area vs ethanol control)", "setting": "[1]; 10^−10M", "value": "significantly increased the colonization of the acellular area"}, {"measurement": "NHDF Migration (+MMC) (colonization of acellular area vs ethanol control)", "setting": "[2]; 10^−7M", "value": "significantly increase the colonization of the acellular area"}, {"measurement": "NHDF Migration (+MMC) (colonization of acellular area vs ethanol control)", "setting": "[2]; 10^−8M", "value": "significantly increase the colonization of the acellular area"}, {"measurement": "NHDF colonization of the cell-free area", "setting": "[2]; absence of MMC, all four concentrations", "value": "not able to significantly increase"}]}
